Patent US6596518B2, “Percyquinnin, a process for its production and its use as a pharmaceutical” (Aventis Pharma Deutschland GmbH, priority 2000, dated 2003)

Assay: Solubility (physico-chemical properties, Table 1)
Format: physicochemical
Conditions: solvents in which the compound is soluble

Solubility: Methanol, DMSO
Structure (SMILES): CC(C)=CCC12C(=O)OC1CC=C2CO (stereo not shown) [Percyquinnin]
